# Measured values: ChEMBL document CHEMBL1147327, “Developments in marine natural products. Receptor-specific bioactive compounds” (1993)
# Activity calls are given as the source filed them. The rule behind the calls is not given here.
# Columns and labels:
# [1] = test system: Candida albicans; test: Antifungal activity against Candida albicans in presence of 100 ppm exogenous ergosterol by agar disk diffusion assay; type: functional, organism-based
# [2] = test system: Candida albicans; test: Antifungal activity against Candida albicans by agar disk diffusion assay; type: functional, organism-based
# [3] = test system: Candida albicans; test: Antifungal activity against Candida albicans at 0.5 ug/disk by agar disk diffusion assay; type: functional; conditions: read-out: IZ
# [4] = test system: Candida albicans; test: Antifungal activity against Candida albicans at 10 ug in presence of 20 ppm exogenous ergosterol; type: functional
SMILES,zone of inhibition at 0.5 µg/disc [3],other results
CC1=C[C@@H]2C[C@@H](C)[C@]3(C)C[C@@H]([C@@]4(C)CC[C@@H]([C@@H](C)C(=O)O)OO4)O[C@]3(C)[C@@H]2CC1,,Activity [1]: Active
COC(=O)[C@H](C)[C@@H]1CC[C@](C)([C@@H]2C[C@@]3(C)[C@H](C)C[C@H]4C=C(C)CC[C@H]4[C@@]3(C)O2)OO1,,Activity [2]: inactive
CCCCCCCCCCCCCC(=O)O[C@@H](c1cnco1)c1nc([C@@H](O)C[C@@H](O)[C@@H](O)[C@@H](C)O)co1 [BENGAZOLE A],9 mm,
CCC(C)CCCCCCCCCCC(=O)O[C@@H](c1cnco1)c1nc([C@H](O)C[C@@H](O)[C@@H](O)[C@@H](C)O)co1 (stereo partly specified) [BENGAZOLE B1],9 mm,
CC(C)CCCCCCCCCCCC(=O)O[C@@H](c1cnco1)c1nc([C@@H](O)C[C@@H](O)[C@@H](O)[C@@H](C)O)co1 [BENGAZOLE B],9 mm,Activity [4]: 50%
CCCCCCCCCCCCC(=O)O[C@@H](c1cnco1)c1nc([C@@H](O)C[C@@H](O)[C@@H](O)[C@@H](C)O)co1 [BENGAZOLE C],9 mm,
CC(C)CCCCCCCCCCC(=O)O[C@@H](c1cnco1)c1nc([C@@H](O)C[C@@H](O)[C@@H](O)[C@@H](C)O)co1 [BENGAZOLE D],9 mm,
CCCCCCCCCCCCCCC(=O)O[C@@H](c1cnco1)c1nc([C@@H](O)C[C@@H](O)[C@@H](O)[C@@H](C)O)co1 [BENGAZOLE E],9 mm,
CCC(C)CCCCCCCCCCCC(=O)O[C@@H](c1cnco1)c1nc([C@@H](O)C[C@@H](O)[C@@H](O)[C@@H](C)O)co1 (stereo partly specified) [BENGAZOLE F],9 mm,
CCCCCCCCCCCCCCCC(=O)O[C@@H](c1cnco1)c1nc([C@@H](O)C[C@@H](O)[C@@H](O)[C@@H](C)O)co1 [BENGAZOLE G],9 mm,
